Test results as given in patent publication US10945978B2, “Treatment and diagnosis of melanoma” (The Rockefeller University, priority 2012, dated 2021).
Counter-ions that a name gives are not always drawn.

What was measured:
[1] = test system: ApoE; assay: ApoE expression by qRT-PCR in human melanoma cells; type: cell-based; details: parental MeWo cells; GW3965 48 hours
Method: Total RNA was extracted from various cell lines using the miRvana kit (AM1560, Applied Biosystems, Austin, Tex.). The expression levels of mature miRNAs were quantified using the Taqman miRNA expression assay (4427975-0002228, Applied Biosystems). RNU44 was used as an endogenous control for normalization. For mRNA expression analyses, 600 ng of total RNA was reverse transcribed using the cDNA First-Strand Synthesis Kit (18080-051, Invitrogen), and roughly 200 ng of the resulting cDNA was then mixed with SYBR green PCR Master Mix (4309155, Applied Biosystems) and the appropriate primers. Each reaction was performed in quadruplicate, and mRNA expression was quantified by performing real-time PCR amplification using an ABI Prism 7900HT Real-Time PCR System (Applied Biosystems). GAPDH was used as an endogenous control for normalization. The following primers were used: […]
RNA was extracted from whole cell lysates using the Total RNA Purification Kit (17200, Norgen, Thorold, Canada). 600 ng of total RNA was then reverse transcribed into cDNA using the cDNA First-Strand Synthesis Kit (18080-051, Invitrogen), and quantitative real-time PCR amplification was performed as previously described (Pencheva et al., 2012) using an ABI Prism 7900HT Real-Time PCR System (Applied Biosystems, Austin, Tex.). Each PCR reaction was carried out in quadruplicates. Gene expression was normalized to GAPDH, which was used as an endogenous control.
For every sample, 600 ng of RNA was reverse transcribed into cDNA using the cDNA First-Strand Synthesis kit (Invitrogen). Approximately 200 ng of cDNA was mixed with SYBR® green PCR Master Mix and the corresponding forward and reverse primers specific for detection of human ApoE. Each reaction was carried out in quadruplicates, and ApoE mRNA expression levels were measured by quantitative real-time PCR amplification using an ABI Prism 7900HT Real-Time PCR System (Applied Biosystems). The relative ApoE expression was determined using the ΔΔCt method. GAPDH was used as an endogenous control for normalization purposes.

[2] = test system: MeWo cells; assay: Orthotopic metastasis assay (lung colonization after tumor excision); type: in vivo, human; details: oral, 100 mg/kg for 1 month post-tumor excision
Method: To determine the effect of GW3965 treatment on lung colonization by melanoma cells dissociated from an orthotopic site, 1×10^6 MeWo cells expressing a luciferase reporter were subcutaneously injected into both lower flanks of NOD Scid mice. Upon the formation of tumors measuring ˜300 mm^3 in volume, the tumors were excised and the mice were randomly assigned to a control diet or a GW3965-supplemented diet (100 mg/kg) treatment. One month after tumor excision, the lungs were extracted and lung colonization was measured by ex vivo bioluminescence imaging. To histologically confirm the extent of melanoma lung colonization, lungs were then fixed in 4% PFA overnight, paraffin-embedded, section into […] increments and stained for human vimentin (VP-V684, Vector Laboratories).

[3] = test system: MeWo human melanoma cells; assay: Subcutaneous MeWo tumor growth in immunocompromised mice; type: in vivo; details: oral, GW3965-supplemented diet
Method: Animals were palpated weekly for tumor formation, after which sizeable tumors were measured twice a week. Tumor volume was calculated as (small diameter)^2×(large diameter)/2.

[4] = test system: Tyr::CreER; B-RafV600E/+; Ptenlox/+ and Tyr::CreER; B-RafV600E/+; Ptenlox/lox mice; assay: Genetically-initiated model of melanoma progression; type: in vivo, mouse
Method: The Tyr::CreER; B-Raf^V600E/+; Pten^lox/+/Tyr::CreER; B—Raf^V600E/+; Pten^lox/lox conditional model of melanoma progression was previously established and characterized by Dankort et al. (2009). Briefly, melanoma in these mice was induced at 6 weeks of age by intraperitoneally injecting 4-HT (H6278, 70% isomer, Sigma-Aldrich, St Louis, Mo.) at 25 mg/kg administered in peanut oil on three consecutive days. The 4-HT stock solution was prepared by dissolving it in 100% EtOH at 50 mg/mL by heating at 45° C. for 5 min and mixing. Once dissolved, the stock 4-HT solution was then diluted by 10-fold in peanut oil, yielding a 5 mg/mL 4-HT working solution that was then injected into mice. After the first 4-HT injection, mice were blindedly assigned to receive either a control diet or a diet supplemented with GW3965 (100 mg/kg). Mice were examined three times a week for the presence and progression of melanoma lesions. At day 35, dorsal skin samples were harvested from control-treated and GW3965-treated mice, fixed in 4% PFA and photographed at 10×. The percentage of pigmented melanoma lesion area out of the total skin area was quantified using ImageJ. For survival analyses, mice were monitored daily for melanoma progression and euthanized according to a standard body condition score, taking into account initial signs of moribund state and discomfort associated with the progression of melanoma burden. Post-mortem, the lungs, brains, and salivary glands were harvested and examined for the presence of macroscopic melanoma lesions.

[5] = test system: B16F10 parental and DTIC-resistant cells; assay: Tumor growth by DTIC-sensitive and DTIC-resistant B16F10 cells; type: in vivo, mouse; details: chow supplemented with GW3965 100 mg/kg
Method: First, the cells were treated with 500 μg/mL DTIC for one week. Following this initial DTIC treatment, the remaining (˜10%) viable cells were allowed to recover for one week, after which 750 rag/mL of DTIC was added to the cell media for 5 days. Subsequent to this high-dose treatment, the cells were allowed to recover in the presence of low-dose DTIC (100 jag/mL) for one week. The cells were then continuously cultured in cell media containing 200 rag/mL DTIC for at least one month prior to grafting the cells into mice. DTIC was added to fresh cancer cell media every 3 days.

[6] = test system: MDA-468 human breast cancer cells; assay: MDA-468 breast cancer tumor growth in Nod Scid gamma mice; type: in vivo; details: GW3965-supplemented diet 75 mg/kg/day
Method: The mice were assigned to a control diet treatment or a GW3965-supplemented diet treatment (75 mg/kg/day) two days prior to injection of the cancer cells.

[7] = test system: MeWo-LM2 cells; assay: Lung metastatic colonization by MeWo-LM2 cells in NOD-SCID mice; type: in vivo, human; details: cells pre-incubated with recombinant ApoE 100 μg/mL for 24 hours before i.v. injection
Method: After 8 hours, the transfection media was replaced with fresh media. After 48 hours, 1×10^5 cells were injected intravenously into NOD-SCID mice to assess lung metastatic colonization or through intracardiac injection into athymic nude mice to assess systemic metastasis. For cell invasion and endothelial recruitment in vitro assays, the cells were used 96 hours post-transfection.

Row | Compound | expression of ApoE [1] | inhibition of lung colonization by disseminated melanoma cells [2] [fold] | tumor growth inhibition [3] [%] | number of lymphatic metastases detected post-mortem ([4]; Ptenlox/lox mice, GW3965 100 mg/kg) | tumor progression ([4]; oral, GW3965 diet 100 mg/kg after melanoma initiation) | overall survival times ([4]; oral, GW3965 diet 100 mg/kg, Ptenlox/+ and Ptenlox/lox) | suppression of tumor growth by the DTIC-resistant B16F10 clone [5] | breast cancer tumor size [6] | suppression of metastatic colonization [7]
1 | O=C(O)Cc1cccc(OCCCN(Cc2cccc(C(F)(F)F)c2Cl)CC(c2ccccc2)c2ccccc2)c1 [GW3965 2, 3-[3-[N-(2-Chloro-3-trifluoromethylbenzyl)-(2,2-diphenylethyl)amino]propyloxy] phenylacetic acid hydrochloride] | increased | 17 | 70 | decrease | attenuated | significantly extended | more than 70% | significant reduction | –
2 | recombinant human ApoE: recombinant human ApoE3 (4696, BioVision) | – | – | – | – | – | – | – | – | over 300 fold
